Test results from PMC4281095 (Journal of Medicinal Chemistry, 2014).

Assays:
CpIMPDH [1] = biological target: T1, CpIMPDH (Cryptosporidium parvum, UniProt Q8T6T2); test: CpIMPDH inhibition, NADH production monitored by fluorescence; conditions: for CpIMPDH inhibition, result in words: qualitative statement; for fold loss of CpIMPDH potency / inhibition: relative to 8k; for fold increase in CpIMPDH activity: relative to 8a
T1 sequence (Q8T6T2 1-400): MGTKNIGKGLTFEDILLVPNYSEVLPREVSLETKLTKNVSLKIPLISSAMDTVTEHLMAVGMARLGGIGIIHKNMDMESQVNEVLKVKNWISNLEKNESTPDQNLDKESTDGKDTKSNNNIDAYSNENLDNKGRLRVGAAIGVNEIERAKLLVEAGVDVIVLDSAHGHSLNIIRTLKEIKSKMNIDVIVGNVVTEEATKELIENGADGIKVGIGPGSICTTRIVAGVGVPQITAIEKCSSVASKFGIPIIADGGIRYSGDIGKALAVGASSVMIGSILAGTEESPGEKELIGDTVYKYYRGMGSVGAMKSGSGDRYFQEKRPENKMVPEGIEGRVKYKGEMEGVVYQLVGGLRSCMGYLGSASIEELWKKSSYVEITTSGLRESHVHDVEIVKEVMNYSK

hIMPDH2 = hIMPDH2 (Homo sapiens, UniProt P12268); test: Assessment of hIMPDH2 inhibition, NADH production; type: biochemical; conditions: read-out: hIMPDH2 inhibition
CpIMPDH [2] = biological target: T1, CpIMPDH; conditions: read-out: CpIMPDH IC50; cited from earlier work
hIMPDH1 = conditions: read-out: hIMPDH1 Ki; cited from earlier work

CpIMPDH inhibition, result in words (CpIMPDH [1])	Compound	also measured
no inhibition activity	O=C(Cn1ncc2c(=O)oc3ccccc3c21)Nc1ccc(Cl)cc1Cl [8g]	–
–	COc1cccc(NC(=O)Cn2ncc3c(=O)oc4ccccc4c32)c1 [8a, 4-oxo-N-(3-methoxyphenyl)-[1]benzopyrano[4,3-c]pyrazole-1(4H)-acetamide]	inhibition at 5 µM (hIMPDH2): < 20%
only weak or no inhibitory activity	O=C(Cn1ncc2c(=O)oc3ccccc3c21)Nc1ccc2[nH]ccc2c1 [13c]	–
only weak or no inhibitory activity	O=C(Cn1ncc2c(=O)oc3ccccc3c21)Nc1ccc2[nH]cnc2c1 [13a]	–
–	COc1cc(NC(=O)Cn2ncc3c2-c2ccccc2OC3)ccc1Cl [13e]	fold loss of CpIMPDH potency / inhibition (CpIMPDH [1]): 3 fold
loss of activity	COc1cc(N(C)C(=O)Cn2ncc3c(=O)oc4ccccc4c32)ccc1Cl [8l]	–
–	O=C(Cn1ncc2c(=O)oc3ccccc3c21)Nc1ccc(C(F)(F)F)cc1 [8e]	fold increase in CpIMPDH activity (CpIMPDH [1]): 3 fold
–	COc1cc(NC(=O)C(C)n2ncc3c(=O)oc4ccccc4c32)ccc1Cl (centres unmarked) [8m]	fold loss of CpIMPDH potency / inhibition (CpIMPDH [1]): 3 fold
loss of inhibition	O=C(Cn1ncc2c(=O)oc3ccccc3c21)Nc1cccc(Cl)c1 [8b]	–
no inhibitory activity	O=C(Cn1ncc2c(=O)oc3ccccc3c21)Nc1ccccc1Cl [8c]	–
–	COc1c(C)c2c(c(O)c1C/C=C(\C)CCC(=O)O)C(=O)OC2 [mycophenolic acid]	IC50 (CpIMPDH [2]): ~10 µM; Ki (hIMPDH1): 0.033 µM
–	O=C(Cn1ncc2c(=O)oc3ccccc3c21)Nc1ccc(F)cc1 [8d]	fold increase in CpIMPDH activity (CpIMPDH [1]): 3 fold
loss of enzyme inhibition	COc1ccc(NC(=O)Cn2ncc3c(=O)oc4ccccc4c32)cc1OC [8i]	–
